Results taken from article PMC4073285, “Exploring the molecular mechanisms of electron shuttling across the microbe/metal space” (Frontiers in Microbiology, 2014).

Columns and labels:
UndA = molecular target: T1, UndA (Shewanella sp. HRCR_06, UniProt F8UWD6); test: 1H NMR titration (heme methyl shifts); assay type: binding; conditions: oxidized protein; 20 mM potassium phosphate pH 7.6, 100 mM KCl, 2H2O, 25 °C
T1 construct: recombinant soluble undecaheme cytochrome from E. coli JM109(DE3) periplasm with pEC86; stop codon after the gene removes V5 and His6 tags; C-terminus encoded by primer GVDKVHPVKY
T1 sequence (F8UWD6 entry or part of it): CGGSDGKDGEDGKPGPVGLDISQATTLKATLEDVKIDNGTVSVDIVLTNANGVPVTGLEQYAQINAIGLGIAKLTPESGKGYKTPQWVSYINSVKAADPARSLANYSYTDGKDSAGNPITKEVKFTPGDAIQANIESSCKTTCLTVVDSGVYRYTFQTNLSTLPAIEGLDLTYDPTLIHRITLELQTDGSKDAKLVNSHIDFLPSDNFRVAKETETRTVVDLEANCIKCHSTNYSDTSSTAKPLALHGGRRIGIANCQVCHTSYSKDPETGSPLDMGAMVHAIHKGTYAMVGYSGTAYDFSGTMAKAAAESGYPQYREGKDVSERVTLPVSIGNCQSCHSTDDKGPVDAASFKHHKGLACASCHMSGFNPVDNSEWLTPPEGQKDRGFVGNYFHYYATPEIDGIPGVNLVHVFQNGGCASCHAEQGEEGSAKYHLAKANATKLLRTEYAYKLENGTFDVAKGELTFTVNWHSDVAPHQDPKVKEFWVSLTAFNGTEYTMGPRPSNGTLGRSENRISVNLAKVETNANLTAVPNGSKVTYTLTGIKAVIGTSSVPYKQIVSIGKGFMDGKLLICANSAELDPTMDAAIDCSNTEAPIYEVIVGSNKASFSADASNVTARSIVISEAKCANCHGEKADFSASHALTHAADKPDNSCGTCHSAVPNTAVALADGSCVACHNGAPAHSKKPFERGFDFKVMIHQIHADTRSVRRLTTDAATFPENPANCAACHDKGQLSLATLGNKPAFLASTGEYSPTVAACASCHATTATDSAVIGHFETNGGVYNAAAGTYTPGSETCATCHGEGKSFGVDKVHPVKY

MtrC [1] = molecular target: T2, MtrC (Shewanella oneidensis, UniProt Q8EG34); test: 1H NMR titration (heme methyl shifts); assay type: binding; conditions: oxidized protein; 20 mM potassium phosphate pH 7.6, 100 mM KCl, 2H2O, 25 °C
T2 construct: recombinant soluble decaheme cytochrome from E. coli JM109(DE3) periplasm with pEC86; stop codon after the gene removes V5 and His6 tags; C-terminus encoded by primer HTKVKM
T2 sequence (Q8EG34 entry or part of it): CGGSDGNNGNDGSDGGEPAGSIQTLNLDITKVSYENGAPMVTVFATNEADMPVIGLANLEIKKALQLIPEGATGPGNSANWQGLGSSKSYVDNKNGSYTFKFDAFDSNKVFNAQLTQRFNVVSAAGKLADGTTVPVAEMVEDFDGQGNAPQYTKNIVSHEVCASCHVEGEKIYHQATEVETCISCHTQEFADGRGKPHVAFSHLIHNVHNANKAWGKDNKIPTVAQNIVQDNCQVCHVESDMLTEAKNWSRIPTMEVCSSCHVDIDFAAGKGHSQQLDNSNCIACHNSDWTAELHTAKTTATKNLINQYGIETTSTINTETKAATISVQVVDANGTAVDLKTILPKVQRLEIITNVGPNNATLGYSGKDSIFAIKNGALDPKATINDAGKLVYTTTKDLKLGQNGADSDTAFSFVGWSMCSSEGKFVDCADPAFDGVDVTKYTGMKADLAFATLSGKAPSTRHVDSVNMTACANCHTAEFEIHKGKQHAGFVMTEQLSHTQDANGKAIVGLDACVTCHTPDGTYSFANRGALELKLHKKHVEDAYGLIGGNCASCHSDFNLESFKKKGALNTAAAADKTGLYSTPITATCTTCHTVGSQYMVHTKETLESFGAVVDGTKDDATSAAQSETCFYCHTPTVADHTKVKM

OmcA [2] = molecular target: T3, OmcA (Shewanella oneidensis, UniProt Q8EG33); test: 1H NMR titration (heme methyl shifts); assay type: binding; conditions: oxidized protein; 20 mM potassium phosphate pH 7.6, 100 mM KCl, 2H2O, 25 °C
T3 construct: recombinant soluble decaheme cytochrome expressed in S. oneidensis MR-1 from pBAD202/D-TOPO; stop codon after the gene removes V5 and His6 tags; C-terminus encoded by primer ...AIDGSTR N not altered (ends MEAHGN)
T3 sequence (Q8EG33 entry or part of it): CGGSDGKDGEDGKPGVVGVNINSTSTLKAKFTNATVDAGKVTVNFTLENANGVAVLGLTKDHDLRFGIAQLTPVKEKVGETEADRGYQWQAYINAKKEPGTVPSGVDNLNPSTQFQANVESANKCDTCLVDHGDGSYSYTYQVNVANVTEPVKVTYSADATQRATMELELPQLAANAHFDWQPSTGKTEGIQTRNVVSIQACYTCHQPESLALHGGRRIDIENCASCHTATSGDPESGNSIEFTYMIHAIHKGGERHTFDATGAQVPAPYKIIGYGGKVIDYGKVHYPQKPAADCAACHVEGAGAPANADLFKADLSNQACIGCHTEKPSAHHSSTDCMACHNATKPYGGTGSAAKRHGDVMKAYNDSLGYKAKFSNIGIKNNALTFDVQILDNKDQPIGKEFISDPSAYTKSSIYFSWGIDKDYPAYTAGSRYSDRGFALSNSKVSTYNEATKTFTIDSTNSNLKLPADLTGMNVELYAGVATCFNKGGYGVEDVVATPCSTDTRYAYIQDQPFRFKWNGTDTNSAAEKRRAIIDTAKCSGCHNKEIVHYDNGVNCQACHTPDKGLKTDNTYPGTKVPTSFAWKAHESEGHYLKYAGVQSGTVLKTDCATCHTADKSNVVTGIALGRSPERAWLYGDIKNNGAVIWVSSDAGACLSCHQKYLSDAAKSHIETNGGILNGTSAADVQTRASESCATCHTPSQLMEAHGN

OmcA [3] = molecular target: T3, OmcA; test: […] NMR titration; assay type: binding; conditions: read-out: βd
MtrC [4] = molecular target: T2, MtrC; test: […] NMR titration; assay type: binding; conditions: read-out: βd
MtrF = molecular target: T4, MtrF (Shewanella oneidensis, UniProt Q8EG32); test: stopped-flow oxidation of reduced cytochrome at […] nm; assay type: biochemical; conditions: electron acceptor; 11 μM PMS, 0.31 μM protein, pH 7.6, 25 °C, anaerobic
T4 construct: recombinant soluble decaheme cytochrome expressed in S. oneidensis MR-1; stop codon after the gene removes V5 and His6 tags
T4 sequence (Q8EG32 24-639): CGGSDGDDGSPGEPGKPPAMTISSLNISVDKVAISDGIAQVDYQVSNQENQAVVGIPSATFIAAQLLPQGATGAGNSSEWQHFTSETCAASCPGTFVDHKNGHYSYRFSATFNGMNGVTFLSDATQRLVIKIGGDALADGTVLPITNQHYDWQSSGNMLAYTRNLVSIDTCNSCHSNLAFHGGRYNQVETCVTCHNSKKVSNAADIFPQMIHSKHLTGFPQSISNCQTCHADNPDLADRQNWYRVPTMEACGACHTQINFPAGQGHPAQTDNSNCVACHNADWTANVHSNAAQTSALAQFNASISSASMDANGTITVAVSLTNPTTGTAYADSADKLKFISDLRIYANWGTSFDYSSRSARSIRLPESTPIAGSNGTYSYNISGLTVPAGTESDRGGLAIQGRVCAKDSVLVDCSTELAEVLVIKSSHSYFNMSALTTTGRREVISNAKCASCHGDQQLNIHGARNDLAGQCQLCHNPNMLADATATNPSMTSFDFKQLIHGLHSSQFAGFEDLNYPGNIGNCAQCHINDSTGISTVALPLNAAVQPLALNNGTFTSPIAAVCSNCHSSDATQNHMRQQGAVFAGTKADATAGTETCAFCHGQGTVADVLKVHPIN

Row | Kd (OmcA [3]) [µM] | Kd (MtrC [4]) [µM] | Structure (SMILES) | 1H NMR titration (heme methyl shifts) (UndA) | 1H NMR titration (heme methyl shifts) (MtrC [1]) | 1H NMR titration (heme methyl shifts) (OmcA [2]) | stopped-flow oxidation of reduced cytochrome at 552 nm (MtrF)
1 | – | – | O=C1c2ccc(S(=O)(=O)O)cc2C(=O)c2ccc(S(=O)(=O)O)cc21 [AQDS, Anthraquinone 2,6-disulfonate] | the addition of AQDS promoted noticeable spectral changes in OmcA, MtrC, and UndA | the addition of AQDS promoted noticeable spectral changes in OmcA, MtrC, and UndA | the addition of AQDS promoted noticeable spectral changes in OmcA, MtrC, and UndA | –
2 | 29 | 255 | Cc1cc2nc3c(=O)[nH]c(=O)nc-3n(C[C@H](O)[C@H](O)[C@H](O)COP(=O)(O)O)c2cc1C [FMN, Flavin mononucleotide] | – | – | – | –
3 | – | – | C[n+]1c2ccccc2nc2ccccc21 [PMS, Phenazine methosulfate] | – | only promoted significant changes in the heme signals of OmcA and MtrC | RF, FMN, and PMS, only promoted significant changes in the heme signals of OmcA | PMS oxidized all the cytochromes at a rate too fast to be measured
4 | – | – | Cc1cc2nc3c(=O)[nH]c(=O)nc-3n(C[C@H](O)[C@H](O)[C@H](O)CO)c2cc1C [RF, Riboflavin] | – | only promoted significant changes in the heme signals of OmcA and MtrC | RF, FMN, and PMS, only promoted significant changes in the heme signals of OmcA | –
